Reference: US20250114460A1, “NOVEL PLK1 DEGRADATION INDUCING COMPOUND” (UPPTHERA, INC., priority 2021, published 2025)

Assays:
PLK1 = target: T1, PLK1 (Homo sapiens, UniProt P53350); experiment: Luciferase assay for PLK1 in HeLa LgBit (Plk1-HiBit KI) cell line; type: cell-based; settings: 300 nM compound, luminescence after 9 hours
T1 construct: endogenous in cells; host or cells: HeLa LgBit (Plk1-HiBit KI): HeLa stably expressing LgBit, with a CRISPR/Cas9 knock-in of HiBit at the endogenous PLK1 locus
T1 sequence (P53350 whole entry): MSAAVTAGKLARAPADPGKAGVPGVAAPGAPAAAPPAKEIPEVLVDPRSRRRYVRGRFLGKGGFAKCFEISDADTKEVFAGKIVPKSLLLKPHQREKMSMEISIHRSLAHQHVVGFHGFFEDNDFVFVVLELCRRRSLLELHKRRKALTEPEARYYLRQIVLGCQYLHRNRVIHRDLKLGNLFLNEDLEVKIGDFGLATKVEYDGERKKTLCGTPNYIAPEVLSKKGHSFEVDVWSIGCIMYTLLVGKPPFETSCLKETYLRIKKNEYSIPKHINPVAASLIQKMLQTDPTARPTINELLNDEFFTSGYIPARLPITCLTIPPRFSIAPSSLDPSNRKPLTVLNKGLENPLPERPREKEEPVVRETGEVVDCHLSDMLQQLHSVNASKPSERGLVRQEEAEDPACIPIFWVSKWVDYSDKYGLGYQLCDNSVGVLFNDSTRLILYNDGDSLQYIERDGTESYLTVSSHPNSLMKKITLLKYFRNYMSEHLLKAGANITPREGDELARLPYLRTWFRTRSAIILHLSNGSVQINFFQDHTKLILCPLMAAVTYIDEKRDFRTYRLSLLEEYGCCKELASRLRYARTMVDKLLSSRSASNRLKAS
Outline: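 HeLa cells stably expressing LgBit, with HiBit knocked in at the C-terminus of endogenous Plk1, released from a 24 h 2 mM thymidine block and grown 18 h. Endurazine added, then compound at 300 nM; luminescence tracked in real time, expressed as ratio to DMSO.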

NCI-H526 cell line = experiment: Cell viability assay for H526 cell (EZ-Cytox); type: cell-based; settings: Homo sapiens, NCI-H526, 120 h; H526 cells, 5 days, 3000 nM to 0.46 nM
Procedure: (1) Culture of NCI-H526 Cell Line
(2) Treatment of Compounds of the Present Invention and Method of Cell Viability Assay
After treating the compound to each well to make the total volume of 200 μL, it was cultured in a CO2 incubator (Thermo Fisher Science, Cat. No. 4111) for 5 days.
The absorbance of the completely cultured sample was measured by setting the wavelength of a plate reader (BMG Labtech, CLARIOstar Plus) to […], and was measured after shaking for 3 minutes in a plate reader before measurement.
In Table 3, Activity represents IC50 value of each Exemplary Compound treatment group to H526 cell line (A: <30 nM, B: <50 nM, C: <100 nM, D: <200 nM, E: <400 nM).

SMILES	Activity: ratio of the luminescense value of each Exemplary Compound treatment group to DMSO treatment group (PLK1)	IC50 (NCI-H526 cell line) [µM]
COc1cc(C(=O)NN2CCN(C(=O)CCCNc3cccc4c3C(=O)N(C3CCC(=O)NC3=O)C4=O)CC2)c(F)cc1Nc1ncc2c(n1)N(C1CCCC1)CC(F)(F)C(=O)N2C (stereo not shown) [Compound 29, 4-((9-cyclopentyl-7,7-difluoro-5-methyl-6-oxo-6,7,8,9-tetrahydro-5H-pyrimido[4,5-b][1,4]diazepin-2-yl)amino)-N-(4-(4-((2-(2,6-dioxopiperidin-3-yl)-1,3-dioxoisoindolin-4-yl)amino)butanoyl)piperazin-1-yl)-2-fluoro-5-methoxybenzamide]	++ (++<0.6)	< 0.03
COc1cc(C(=O)NC2CCN(C(=O)CCCNc3cccc4c3C(=O)N(C3CCC(=O)NC3=O)C4=O)CC2)c(F)cc1Nc1ncc2c(n1)N(C(C)C)CC(F)(F)C(=O)N2C (stereo not shown) [Compound 33, 4-((7,7-difluoro-9-isopropyl-5-methyl-6-oxo-6,7,8,9-tetrahydro-5H-pyrimido[4,5-b][1,4]diazepin-2-yl)amino)-N-(1-(4-((2-(2,6-dioxopiperidin-3-yl)-1,3-dioxoisoindolin-4-yl)amino)butanoyl)piperidin-4-yl)-2-fluoro-5-methoxybenzamide]	++ (++<0.6)	< 0.2
COc1cc(C(=O)NC2CCN(C(=O)COc3cccc4c3C(=O)N(C3CCC(=O)NC3=O)C4=O)CC2)c(F)cc1Nc1ncc2c(n1)N(C1CCCC1)CC(F)(F)C(=O)N2C (stereo not shown) [Compound 37, 4-((9-cyclopentyl-7,7-difluoro-5-methyl-6-oxo-6,7,8,9-tetrahydro-5H-pyrimido[4,5-b][1,4]diazepin-2-yl)amino)-N-(1-(2-((2-(2,6-dioxopiperidin-3-yl)-1,3-dioxoisoindolin-4-yl)oxy)acetyl)piperidin-4-yl)-2-fluoro-5-methoxybenzamide]	++ (++<0.6)	< 0.4
COc1cc(C(=O)NC2CCN(C(=O)CCCSc3cccc4c3C(=O)N(C3CCC(=O)NC3=O)C4=O)CC2)c(F)cc1Nc1ncc2c(n1)N(C1CCCC1)CC(F)(F)C(=O)N2C (stereo not shown) [Compound 42, 4-((9-cyclopentyl-7,7-difluoro-5-methyl-6-oxo-6,7,8,9-tetrahydro-5H-pyrimido[4,5-b][1,4]diazepin-2-yl)amino)-N-(1-(4-((2-(2,6-dioxopiperidin-3-yl)-1,3-dioxoisoindolin-4-yl)thio)butanoyl)piperidin-4-yl)-2-fluoro-5-methoxybenzamide]	++ (++<0.6)	< 0.1
COc1cc(C(=O)NN2CCN(C3CCN(c4cccc5c4C(=O)N(C4CCC(=O)NC4=O)C5=O)C3)CC2)ccc1Nc1ncc2c(n1)N(C(C)C)CC(F)(F)C(=O)N2C (stereo not shown) [Compound 52, 4-((7,7-difluoro-9-isopropyl-5-methyl-6-oxo-6,7,8,9-tetrahydro-5H-pyrimido[4,5-b][1,4]diazepin-2-yl)amino)-N-(4-(1-(2-(2,6-dioxopiperidin-3-yl)-1,3-dioxoisoindolin-4-yl)pyrrolidin-3-yl)piperazin-1-yl)-3-methoxybenzamide]	++ (++<0.6)	< 0.03
COc1cc(C(=O)NCC2CCN(CC3CCN(c4cccc5c4C(=O)N(C4CCC(=O)NC4=O)C5=O)CC3)CC2)ccc1Nc1ncc2c(n1)N(C1CCCC1)CC(F)(F)C(=O)N2C (stereo not shown) [Compound 53, 4-((9-cyclopentyl-7,7-difluoro-5-methyl-6-oxo-6,7,8,9-tetrahydro-5H-pyrimido[4,5-b][1,4]diazepin-2-yl)amino)-N-((1-((1-(2-(2,6-dioxopiperidin-3-yl)-1,3-dioxoisoindolin-4-yl)piperidin-4-yl)methyl)piperidin-4-yl)methyl)-3-methoxybenzamide]	+++ (+++: <0.3)	< 0.05
COc1cc(C(=O)N2CCN(CCN3CCN(c4cccc5c4C(=O)N(C4CCC(=O)NC4=O)C5=O)CC3)CC2)ccc1Nc1ncc2c(n1)N(C1CCCC1)CC(F)(F)C(=O)N2C (stereo not shown) [Compound 86, 4-(4-(2-(4-(4-((9-cyclopentyl-7,7-difluoro-5-methyl-6-oxo-6,7,8,9-tetrahydro-5H-pyrimido[4,5-b][1,4]diazepin-2-yl)amino)-3-methoxybenzoyl)piperazin-1-yl)ethyl)piperazin-1-yl)-2-(2,6-dioxopiperidin-3-yl)isoindoline-1,3-dione]	++ (++<0.6)	< 0.4
COc1cc(C(=O)N2CCC(CCN3CCN(c4cccc5c4C(=O)N(C4CCC(=O)NC4=O)C5=O)CC3)CC2)ccc1Nc1ncc2c(n1)N(C1CCCC1)CC(F)(F)C(=O)N2C (stereo not shown) [Compound 94, 4-(4-(2-(1-(4-((9-cyclopentyl-7,7-difluoro-5-methyl-6-oxo-6,7,8,9-tetrahydro-5H-pyrimido[4,5-b][1,4]diazepin-2-yl)amino)-3-methoxybenzoyl)piperidin-4-yl)ethyl)piperazin-1-yl)-2-(2,6-dioxopiperidin-3-yl)isoindoline-1,3-dione]	++ (++<0.6)	< 0.4
COc1cc(C(=O)N2CCC(CN3CCN(c4ccc5c(c4)C(=O)N(C4CCC(=O)NC4=O)C5=O)CC3)CC2)ccc1Nc1ncc2c(n1)N(C1CCCC1)CC(F)(F)C(=O)N2C (stereo not shown) [Compound 97, 5-(4-((1-(4-((9-cyclopentyl-7,7-difluoro-5-methyl-6-oxo-6,7,8,9-tetrahydro-5H-pyrimido[4,5-b][1,4]diazepin-2-yl)amino)-3-methoxybenzoyl)piperidin-4-yl)methyl)piperazin-1-yl)-2-(2,6-dioxopiperidin-3-yl)isoindoline-1,3-dione]	++ (++<0.6)	< 0.4
COc1cc(C(=O)N2CCC(CCCN3CCN(c4ccc5c(c4)C(=O)N(C4CCC(=O)NC4=O)C5=O)CC3)CC2)ccc1Nc1ncc2c(n1)N(C1CCCC1)CC(F)(F)C(=O)N2C (stereo not shown) [Compound 99, 5-(4-(3-(1-(4-((9-cyclopentyl-7,7-difluoro-5-methyl-6-oxo-6,7,8,9-tetrahydro-5H-pyrimido[4,5-b][1,4]diazepin-2-yl)amino)-3-methoxybenzoyl)piperidin-4-yl)propyl)piperazin-1-yl)-2-(2,6-dioxopiperidin-3-yl)isoindoline-1,3-dione]	++ (++<0.6)	< 0.4
COc1cc(N2CCC(CN3CCN(c4cccc5c4C(=O)N(C4CCC(=O)NC4=O)C5=O)CC3)CC2)c(F)cc1Nc1ncc2c(n1)N(C1CCCC1)CC(F)(F)C(=O)N2C (stereo not shown) [Compound 103, 4-(4-((1-(4-((9-cyclopentyl-7,7-difluoro-5-methyl-6-oxo-6,7,8,9-tetrahydro-5H-pyrimido[4,5-b][1,4]diazepin-2-yl)amino)-2-fluoro-5-methoxyphenyl)piperidin-4-yl)methyl)piperazin-1-yl)-2-(2,6-dioxopiperidin-3-yl)isoindoline-1,3-dione]	++ (++<0.6)	< 0.2
